According to ChEMBL document CHEMBL1157668, “Synthesis and structure-activity relationships of N-benzyl-N-(X-2-hydroxybenzyl)-N'-phenylureas and thioureas as antitumor agents” (Bioorg Med Chem, 2010):

Key:
MCF7 = test: cells; conditions: Homo sapiens, MCF7, 48 h
[1] = target: Epidermal growth factor receptor (Homo sapiens, UniProt P00533); test: biochemical
Description: Inhibition of cloned EGFR autophosphorylation expressed in baculovirus-infected Sf9 cells by solid-phase ELISA

[2] = target: Receptor tyrosine-protein kinase erbB-2 (Homo sapiens, UniProt P04626); test: biochemical
Receptor tyrosine-protein kinase erbB-2, sequence (P04626 whole entry): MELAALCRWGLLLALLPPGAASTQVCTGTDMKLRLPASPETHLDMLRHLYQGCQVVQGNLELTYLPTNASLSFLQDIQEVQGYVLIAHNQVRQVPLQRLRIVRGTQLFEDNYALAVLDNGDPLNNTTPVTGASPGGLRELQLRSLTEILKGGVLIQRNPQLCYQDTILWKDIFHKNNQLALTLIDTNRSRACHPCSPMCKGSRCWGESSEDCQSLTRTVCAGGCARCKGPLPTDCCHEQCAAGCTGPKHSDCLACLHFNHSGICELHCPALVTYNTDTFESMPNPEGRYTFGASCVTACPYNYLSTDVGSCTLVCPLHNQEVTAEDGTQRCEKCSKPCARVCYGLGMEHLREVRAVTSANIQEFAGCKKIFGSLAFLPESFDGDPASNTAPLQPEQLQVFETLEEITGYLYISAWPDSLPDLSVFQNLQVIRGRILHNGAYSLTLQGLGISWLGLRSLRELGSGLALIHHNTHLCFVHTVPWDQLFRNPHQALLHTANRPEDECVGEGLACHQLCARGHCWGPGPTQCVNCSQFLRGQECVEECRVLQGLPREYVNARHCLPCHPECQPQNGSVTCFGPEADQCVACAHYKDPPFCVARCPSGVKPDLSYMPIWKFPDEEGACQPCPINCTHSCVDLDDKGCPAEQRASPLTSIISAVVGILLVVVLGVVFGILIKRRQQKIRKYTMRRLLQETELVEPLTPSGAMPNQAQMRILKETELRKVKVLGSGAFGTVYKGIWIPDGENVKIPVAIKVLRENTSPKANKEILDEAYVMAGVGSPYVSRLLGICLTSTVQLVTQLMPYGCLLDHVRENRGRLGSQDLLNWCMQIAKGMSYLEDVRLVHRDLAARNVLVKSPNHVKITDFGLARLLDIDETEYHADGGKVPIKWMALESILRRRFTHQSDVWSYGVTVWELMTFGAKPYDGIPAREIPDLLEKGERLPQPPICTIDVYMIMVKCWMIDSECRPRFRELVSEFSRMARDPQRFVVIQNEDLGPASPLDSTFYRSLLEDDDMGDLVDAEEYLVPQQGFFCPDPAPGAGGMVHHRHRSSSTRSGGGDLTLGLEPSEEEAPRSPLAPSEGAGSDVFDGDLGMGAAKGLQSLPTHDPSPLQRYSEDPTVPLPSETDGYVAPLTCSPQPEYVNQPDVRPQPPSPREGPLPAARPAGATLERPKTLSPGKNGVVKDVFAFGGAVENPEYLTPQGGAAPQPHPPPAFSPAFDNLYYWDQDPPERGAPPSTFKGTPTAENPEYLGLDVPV
Description: Inhibition of human cloned HER2 autophosphorylation expressed in baculovirus-infected Sf9 cells by solid-phase ELISA

Epidermal growth factor receptor, sequence (P00533 whole entry): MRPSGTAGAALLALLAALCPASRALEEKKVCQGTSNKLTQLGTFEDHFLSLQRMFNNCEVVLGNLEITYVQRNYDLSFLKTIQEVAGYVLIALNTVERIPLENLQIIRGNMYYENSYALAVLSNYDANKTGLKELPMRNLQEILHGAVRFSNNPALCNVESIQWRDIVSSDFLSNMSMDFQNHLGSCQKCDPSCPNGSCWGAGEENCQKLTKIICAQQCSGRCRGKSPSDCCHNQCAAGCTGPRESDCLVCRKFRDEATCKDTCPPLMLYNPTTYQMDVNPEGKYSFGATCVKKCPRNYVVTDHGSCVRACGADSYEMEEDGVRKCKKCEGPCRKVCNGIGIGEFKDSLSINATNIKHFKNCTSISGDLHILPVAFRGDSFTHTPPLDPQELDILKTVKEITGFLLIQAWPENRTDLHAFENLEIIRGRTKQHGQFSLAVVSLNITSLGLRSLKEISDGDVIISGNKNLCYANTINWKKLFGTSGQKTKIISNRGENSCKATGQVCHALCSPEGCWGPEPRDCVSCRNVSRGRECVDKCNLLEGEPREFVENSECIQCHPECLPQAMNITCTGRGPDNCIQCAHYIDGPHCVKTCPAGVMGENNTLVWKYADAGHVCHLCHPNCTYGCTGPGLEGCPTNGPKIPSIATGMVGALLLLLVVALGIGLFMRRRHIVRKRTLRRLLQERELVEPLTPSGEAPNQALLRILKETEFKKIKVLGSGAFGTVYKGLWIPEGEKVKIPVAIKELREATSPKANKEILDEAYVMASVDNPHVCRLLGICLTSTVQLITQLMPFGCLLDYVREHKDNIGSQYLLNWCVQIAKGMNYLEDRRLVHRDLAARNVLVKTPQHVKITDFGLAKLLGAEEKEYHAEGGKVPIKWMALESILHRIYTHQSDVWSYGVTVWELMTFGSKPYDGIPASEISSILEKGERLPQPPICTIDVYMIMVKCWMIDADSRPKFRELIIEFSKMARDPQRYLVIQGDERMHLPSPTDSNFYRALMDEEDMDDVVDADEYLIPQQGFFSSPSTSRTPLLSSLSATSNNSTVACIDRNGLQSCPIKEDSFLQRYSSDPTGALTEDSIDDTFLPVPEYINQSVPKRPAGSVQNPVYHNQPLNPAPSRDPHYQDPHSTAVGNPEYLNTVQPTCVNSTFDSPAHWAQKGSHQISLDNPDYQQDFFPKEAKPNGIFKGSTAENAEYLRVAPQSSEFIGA

SMILES | IC50 (MCF7) | IC50 [1] | IC50 [2]
Oc1ccc(CN(Cc2cccc(Br)c2O)C(=S)Nc2ccccc2)cc1 | 0.06 µM | 0.12 µM | 0.66 µM
CCCCN(Cc1cc(Cl)cc(Cl)c1O)C(=O)Nc1ccccc1 | 30 µM | > 50 µM | > 50 µM
Oc1ccc(CN(Cc2cc(Br)cc(Br)c2O)C(=S)Nc2ccccc2)cc1 | 0.36 µM | 0.87 µM | 2.24 µM
Cc1cccc(CN(Cc2ccc(O)cc2)C(=O)Nc2ccccc2)c1O | 5.3 µM | 7.51 µM | 18.4 µM
O=C(Nc1ccccc1)N(Cc1ccc(F)cc1)Cc1cccc(Br)c1O | 1.4 µM | 2.24 µM | 5.17 µM
Cc1cc(C)c(O)c(CN(Cc2ccc(F)cc2)C(=O)Nc2ccccc2)c1 | 6.6 µM | 27.4 µM | > 50 µM
Oc1ccc(CN(Cc2cc(Cl)cc(Cl)c2O)C(=S)Nc2ccccc2)cc1 | 0.22 µM | 0.56 µM | 1.23 µM
O=C(Nc1ccccc1)N(Cc1ccc(O)cc1)Cc1cccc(Cl)c1O | 0.19 µM | 0.96 µM | 2.27 µM
Oc1ccc(CN(Cc2cccc(Cl)c2O)C(=S)Nc2ccccc2)cc1 | 0.03 µM | 0.08 µM | 0.35 µM
CCCCN(Cc1cccc(Br)c1O)C(=S)Nc1ccccc1 | 14.2 µM | 22 µM | 39.5 µM
O=C(Nc1ccccc1)N(Cc1ccc(O)cc1)Cc1cc(Cl)cc(Cl)c1O | 1.1 µM | 1.86 µM | 2.21 µM
Cc1cc(C)c(O)c(CN(Cc2ccc(O)cc2)C(=O)Nc2ccccc2)c1 | 8.5 µM | 9.26 µM | 16.1 µM
CCCCN(Cc1cc(Br)cc(Br)c1O)C(=S)Nc1ccccc1 | 16.7 µM | 31.9 µM | > 50 µM
Oc1c(Br)cc(Br)cc1CN(Cc1ccc(F)cc1)C(=S)Nc1ccccc1 | 1.7 µM | 1.76 µM | 6.73 µM
CCCCN(Cc1cccc(C)c1O)C(=O)Nc1ccccc1 | 52 µM | > 50 µM | > 50 µM
Cc1cccc(CN(Cc2ccc(O)cc2)C(=S)Nc2ccccc2)c1O | 1.2 µM |  | 7.13 µM
O=C(Nc1ccccc1)N(Cc1ccc(F)cc1)Cc1cc(Br)cc(Br)c1O | 3.6 µM | 4.68 µM | 12.4 µM
Oc1c(Cl)cccc1CN(Cc1ccc(F)cc1)C(=S)Nc1ccccc1 | 0.52 µM | 0.67 µM | 1.41 µM
Cc1cc(C)c(O)c(CN(Cc2ccccc2)C(=S)Nc2ccccc2)c1 | 34.1 µM | > 50 µM | > 50 µM
O=C(Nc1ccccc1)N(Cc1ccc(F)cc1)Cc1cc(Cl)cc(Cl)c1O | 2.8 µM | 4.15 µM | 9.64 µM
CCCCN(Cc1cccc(Br)c1O)C(=O)Nc1ccccc1 | 9.1 µM | 36.9 µM | > 50 µM
Cc1cccc(CN(Cc2ccc(F)cc2)C(=O)Nc2ccccc2)c1O | 5.5 µM | 21.7 µM | 38.2 µM
CCCCN(Cc1cc(Br)cc(Br)c1O)C(=O)Nc1ccccc1 | 35 µM | > 50 µM | > 50 µM
O=C(Nc1ccccc1)N(Cc1ccc(O)cc1)Cc1cc(Br)cc(Br)c1O | 1.32 µM | 1.12 µM | 4.53 µM

More lines, now with the values ahead:

IC50 (MCF7) | IC50 [1] | IC50 [2] | SMILES
3.8 µM | 8.54 µM | 15.7 µM | Cc1cccc(CN(Cc2ccc(F)cc2)C(=S)Nc2ccccc2)c1O
0.73 µM | 0.98 µM | 1.87 µM | Oc1c(Br)cccc1CN(Cc1ccc(F)cc1)C(=S)Nc1ccccc1
1.1 µM | 1.98 µM | 3.45 µM | O=C(Nc1ccccc1)N(Cc1ccc(F)cc1)Cc1cccc(Cl)c1O
26 µM | > 50 µM | > 50 µM | CCCCN(Cc1cc(C)cc(C)c1O)C(=O)Nc1ccccc1
10.5 µM | 19.4 µM | 37.8 µM | Cc1cc(C)c(O)c(CN(Cc2ccc(F)cc2)C(=S)Nc2ccccc2)c1
1.1 µM | 1.34 µM | 6.49 µM | Oc1c(Cl)cc(Cl)cc1CN(Cc1ccc(F)cc1)C(=S)Nc1ccccc1
23.6 µM | 43.2 µM | > 50 µM | CCCCN(Cc1cccc(C)c1O)C(=S)Nc1ccccc1
2.6 µM | 5.83 µM | 9.47 µM | Cc1cc(C)c(O)c(CN(Cc2ccc(O)cc2)C(=S)Nc2ccccc2)c1
12.8 µM | 24.6 µM | 39.8 µM | CCCCN(Cc1cc(Cl)cc(Cl)c1O)C(=S)Nc1ccccc1
7.4 µM | 18.1 µM | 32.5 µM | CCCCN(Cc1cccc(Cl)c1O)C(=S)Nc1ccccc1
9.3 µM | 32.1 µM | > 50 µM | CCCCN(Cc1cccc(Cl)c1O)C(=O)Nc1ccccc1
0.25 µM | 1.07 µM | 2.66 µM | O=C(Nc1ccccc1)N(Cc1ccc(O)cc1)Cc1cccc(Br)c1O
